This is an account of results in ChEMBL document CHEMBL5579881, “Synthesis of the Corrected Structure Assigned to Clonorosin B, an Alkaloid Obtained from the Soil-derived Fungus Clonostachys rosea YRS-06” (J Nat Prod, 2024).

Data set [1] deals with Candida albicans. As to the kind of experiment: Antifungal activity against Candida albicans ATCC 10231 assessed as inhibition of fungal growth at 0.01 to 30 uM after 24 hrs by spectrophotometric analysis. Format: functional, organism-based. The conditions noted are these: dose 0.01-30 µM.
For data set [2], the target named is ATP-dependent translocase ABCB1 (Homo sapiens, UniProt P08183). Briefly: Inhibition of P-gp in human SW620/AD300 cells assessed as reduction in doxorubicin IC50 at 5 uM incubated for 48 hrs by MTT assat. Format: functional, cell-based. The conditions noted are these: sw620/ad300, 48 h.
ATP-dependent translocase ABCB1, sequence (P08183 whole entry): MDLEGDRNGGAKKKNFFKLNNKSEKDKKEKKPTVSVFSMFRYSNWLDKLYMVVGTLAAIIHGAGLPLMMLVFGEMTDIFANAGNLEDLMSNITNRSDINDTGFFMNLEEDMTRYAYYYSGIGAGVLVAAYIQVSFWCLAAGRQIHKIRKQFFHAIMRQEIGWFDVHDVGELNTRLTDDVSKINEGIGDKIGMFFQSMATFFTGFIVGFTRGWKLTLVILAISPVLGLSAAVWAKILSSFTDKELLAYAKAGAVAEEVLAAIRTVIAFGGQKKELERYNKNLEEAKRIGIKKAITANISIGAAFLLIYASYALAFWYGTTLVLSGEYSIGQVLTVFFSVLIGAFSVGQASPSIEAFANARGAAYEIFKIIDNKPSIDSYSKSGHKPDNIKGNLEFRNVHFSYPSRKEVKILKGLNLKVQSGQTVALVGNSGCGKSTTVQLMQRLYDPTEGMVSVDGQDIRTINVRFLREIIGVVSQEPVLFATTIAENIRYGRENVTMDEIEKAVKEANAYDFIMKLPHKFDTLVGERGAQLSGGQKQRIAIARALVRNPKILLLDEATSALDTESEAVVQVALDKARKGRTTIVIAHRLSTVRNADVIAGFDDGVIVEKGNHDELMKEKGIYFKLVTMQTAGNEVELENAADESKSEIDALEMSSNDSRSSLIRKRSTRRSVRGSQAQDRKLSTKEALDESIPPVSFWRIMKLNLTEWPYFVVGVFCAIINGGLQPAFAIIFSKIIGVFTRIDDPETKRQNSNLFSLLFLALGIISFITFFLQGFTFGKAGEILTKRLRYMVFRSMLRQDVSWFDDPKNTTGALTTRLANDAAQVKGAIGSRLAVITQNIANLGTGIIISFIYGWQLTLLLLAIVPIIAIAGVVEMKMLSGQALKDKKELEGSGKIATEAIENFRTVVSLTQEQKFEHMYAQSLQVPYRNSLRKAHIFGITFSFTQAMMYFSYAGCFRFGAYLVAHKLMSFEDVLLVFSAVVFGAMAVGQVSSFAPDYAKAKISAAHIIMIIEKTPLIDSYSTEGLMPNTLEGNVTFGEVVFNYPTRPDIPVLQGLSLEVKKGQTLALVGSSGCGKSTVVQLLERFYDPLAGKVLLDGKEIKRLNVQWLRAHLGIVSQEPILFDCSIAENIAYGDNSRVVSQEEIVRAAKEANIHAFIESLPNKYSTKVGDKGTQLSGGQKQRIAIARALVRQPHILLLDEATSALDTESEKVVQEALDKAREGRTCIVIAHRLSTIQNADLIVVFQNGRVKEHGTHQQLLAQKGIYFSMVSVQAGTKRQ
The test system of data set [3] is Escherichia coli. As to the kind of experiment: Antibacterial activity against Escherichia coli ATCC 11775 assessed as inhibition of microbial growth at 0.01 to 30 uM after 24 hrs by spectrophotometric analysis. Format: functional, organism-based. The conditions noted are these: dose 0.01-30 µM.
Data set [4] relates to Staphylococcus aureus. Briefly: Antibacterial activity against Staphylococcus aureus ATCC 25923 assessed as inhibition of microbial growth at 0.01 to 30 uM after 24 hrs by spectrophotometric analysis. Format: functional, organism-based. The conditions noted are these: dose 0.01-30 µM.
The subject of data set [5] is Staphylococcus aureus. As to the kind of experiment: Antibacterial activity against methicillin-resistant Staphylococcus aureus AUS-RBWH-MRSA-02 assessed as inhibition of microbial growth at 0.01 to 30 uM after 24 hrs by spectrophotometric analysis. Format: functional, organism-based. The note with it: dose 0.01-30 µM.
For data set [6], the system named is SW-620. As to the kind of experiment: Cytotoxicity against human SW620 cells assessed as growth inhibition at 0.01 to 30 uM incubated for 48 hrs by MTT assay. The conditions noted are these: dose 0.01-30 µM. It counts as functional, cell-based. In general terms: Formazan colour is commonly taken as a measure of viable cells.

The source made the active and inactive calls. The calls are words filed in the database; no cut-off is given here.

In the case of `O=C1c2ccc(O)c(O)c2Cn2cccc21`, the inhibition entry in data set [1], in data set [3], in data set [4] and in data set [5] was “inactive” in each case. Moreover, the “inhibition (INH)” value in data set [2] is “Not Active”. For the same compound, in data set [6], the “growth inhibition (GI)” value is “inactive”.
Take `COc1ccc2c(c1OC)Cn1cccc1C2=O`: the inhibition result in data set [1], in data set [3], in data set [4] and in data set [5] was “inactive” throughout. For the same compound, the “inhibition (INH)” value in data set [2] is “Not Active”. In data set [6], the “growth inhibition (GI)” value was “inactive”.
As for `O=C1c2ccc3c(c2Cn2cccc21)OCO3`, the inhibition result in data set [1], in data set [3], in data set [4] and in data set [5] was “inactive” each time. Besides, the “inhibition (INH)” value in data set [2] was “Not Active”. In data set [6], the “growth inhibition (GI)” value is “inactive”.
Consider `O=C(OCc1cccc2c1OCO2)c1ccc[nH]1`, for which the inhibition entry in data set [1], in data set [3], in data set [4] and in data set [5] was “inactive” each time. In data set [2], the “inhibition (INH)” value is reported as “Not Active”. Moreover, the “growth inhibition (GI)” value in data set [6] is “inactive”.
On to `O=C(O)c1cccn1Cc1cccc2c1OCO2`, for which the inhibition result in data set [1], in data set [3], in data set [4] and in data set [5] was “inactive” each time. Besides, the “inhibition (INH)” value in data set [2] was “Not Active”. Also, in data set [6], the “growth inhibition (GI)” value was “inactive”.
`COC(=O)c1cccn1Cc1cccc2c1OCO2`: the inhibition entry in data set [1], in data set [3], in data set [4] and in data set [5] was “inactive” each time. In data set [2], the “inhibition (INH)” value was “Not Active”. For the same compound, the “growth inhibition (GI)” value in data set [6] was “inactive”.
Turning to `COC(=O)c1cccn1Cc1cccc(OC)c1OC`, the inhibition result in data set [1], in data set [3], in data set [4] and in data set [5] was “inactive” in each case. In addition, the “inhibition (INH)” value in data set [2] is recorded as “Not Active”. Moreover, in data set [6], the “growth inhibition (GI)” value was “inactive”.
`COc1cccc(Cn2cccc2C(=O)O)c1OC`: the inhibition result in data set [1], in data set [3], in data set [4] and in data set [5] was “inactive” in each case. The “inhibition (INH)” value in data set [2] is on record as “Not Active”. In addition, in data set [6], the “growth inhibition (GI)” value was “inactive”.
